Reference: ChEMBL document CHEMBL4321836, “Discovery of BAY-298 and BAY-899: Tetrahydro-1,6-naphthyridine-Based, Potent, and Selective Antagonists of the Luteinizing Hormone Receptor Which Reduce Sex Hormone Levels in Vivo” (J Med Chem, 2019)
Blank lines part the entries; values can stand above or below the compound they belong to.

Tests used:
[1] = Maximum oral bioavailability in rat liver microsomes based well stirred liver model at 1 uM measured after 2 to 60 mins in presence of glucose-6-phosphate by LC-MS/MS analysis; type: ADME, Microsome; conditions: read-out: Fmax
[2] = Clearance in Han Wistar rat hepatocytes at 1 uM measured after 2 to 90 mins by LC-MS/MS analysis; type: ADME, cell-based, Hepatocyte
[3] = Half life in Wistar rat at 2 mg/kg, po after 8 to 72 hrs by LC-MS/MS analysis; type: ADME, organism-based; conditions: in vivo
[4] = molecular target: T1, Alpha-1A adrenergic receptor (Homo sapiens) (UniProt P35348); experiment: Agonist activity at human alpha1A adrenergic receptor expressed in CHO-K1 cells at 10 uM by fluorimetric method relative to control; type: cell-based
T1 sequence (whole entry): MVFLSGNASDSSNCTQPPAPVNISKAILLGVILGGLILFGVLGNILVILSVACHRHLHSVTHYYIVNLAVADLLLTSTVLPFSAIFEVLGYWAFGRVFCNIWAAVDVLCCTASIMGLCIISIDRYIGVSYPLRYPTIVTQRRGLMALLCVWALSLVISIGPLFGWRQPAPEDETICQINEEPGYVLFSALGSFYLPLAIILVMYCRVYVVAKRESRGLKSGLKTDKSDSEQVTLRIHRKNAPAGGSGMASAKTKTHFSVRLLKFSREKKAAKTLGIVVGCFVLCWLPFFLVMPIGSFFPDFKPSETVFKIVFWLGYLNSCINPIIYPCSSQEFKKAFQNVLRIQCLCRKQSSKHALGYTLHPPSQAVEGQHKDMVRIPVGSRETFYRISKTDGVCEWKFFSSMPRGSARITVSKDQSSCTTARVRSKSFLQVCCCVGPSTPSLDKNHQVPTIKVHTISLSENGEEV

[5] = molecular target: Cannabinoid receptor 1 (Homo sapiens) (UniProt P21554); experiment: Antagonist activity at human CB1 receptor expressed in CHO-K1 cells at 10 uM after 20 mins HTRF assay relative to control; type: cell-based; set-up: scale not given: the % may be the effect or the level left
[6] = molecular target: D(2) dopamine receptor (Homo sapiens) (UniProt P14416); experiment: Antagonist activity at human Dopamine D2L receptor expressed in CHO-K1 cells at 10 uM by Fluorimetric analysis relative to control; type: cell-based; set-up: scale not given: the % may be the effect or the level left
[7] = molecular target: Substance-P receptor (Homo sapiens) (UniProt P25103); experiment: Agonist activity at human NK1 receptor expressed in U373 MG cells at 10 uM by fluorimetric method relative to control; type: cell-based; conditions: U-373MG ATCC
[8] = molecular target: T2, Prostaglandin E2 receptor EP3 subtype (Homo sapiens) (UniProt P43115); experiment: Agonist activity at human EP3 receptor expressed in […] cells at 10 uM by spectrophotometric method relative to control; type: cell-based
T2 sequence (whole entry): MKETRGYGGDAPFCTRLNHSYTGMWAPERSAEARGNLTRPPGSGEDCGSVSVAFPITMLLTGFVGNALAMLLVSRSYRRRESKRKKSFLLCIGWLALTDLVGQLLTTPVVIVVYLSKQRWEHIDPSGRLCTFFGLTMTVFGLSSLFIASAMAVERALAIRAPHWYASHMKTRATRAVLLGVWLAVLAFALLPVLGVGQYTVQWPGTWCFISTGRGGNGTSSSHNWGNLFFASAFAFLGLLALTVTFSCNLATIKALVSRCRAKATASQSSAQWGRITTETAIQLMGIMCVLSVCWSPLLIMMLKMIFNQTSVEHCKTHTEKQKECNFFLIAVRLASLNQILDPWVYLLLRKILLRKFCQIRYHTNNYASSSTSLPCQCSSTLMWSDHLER

[9] = tested on: Rattus norvegicus; experiment: Reversal of human luteinizing hormone-induced suppression of aromatase mRNA expression in cetrorelix-treated iv dosed female rat after 2 hrs by Taqman probe based RT-PCR analysis; type: functional, organism-based
[10] = tested on: Rattus norvegicus; experiment: Downregulation of human luteinizing hormone-induced RUNX1 mRNA expression in cetrorelix-treated iv dosed female rat after 2 hrs by Taqman probe based RT-PCR analysis; type: functional, organism-based
[11] = molecular target: T3, Lutropin-choriogonadotropic hormone receptor (Homo sapiens, UniProt P22888); experiment: (§1) Negative allosteric modulation of human luteinizing hormone receptor assessed as Emax for glycoprotein human luteinizing hormone-induced agonist activity at 0.84 nM to 17 uM preincubated for 20 mins followed by 1 times EC80 of agonist addition and measured after 60 mins by cell based TR-FRET assay relative to control
[12] = molecular target: T3, Lutropin-choriogonadotropic hormone receptor; experiment: as §1, with “by 4” for “by 1”
[13] = molecular target: T3, Lutropin-choriogonadotropic hormone receptor; experiment: as §1, with “by 16” for “by 1”; conditions: at 0.00084 to 17 µM
[14] = molecular target: T3, Lutropin-choriogonadotropic hormone receptor; experiment: as §1, with “reduction in” for “Emax for”, “activity” for “activity at 0.84 nM to 17 uM”, “16” for “1”
[15] = molecular target: T3, Lutropin-choriogonadotropic hormone receptor; experiment: Negative allosteric modulation of human luteinizing hormone receptor assessed as Emax for Org 43553-induced agonist activity at 0.84 nM to 17 uM preincubated for 20 mins followed by 1 times EC80 of agonist addition and measured after 60 mins by cell based TR-FRET assay relative to control
[16] = molecular target: T3, Lutropin-choriogonadotropic hormone receptor; experiment: Negative allosteric modulation of human luteinizing hormone receptor assessed as Emax for Org 43553-induced agonist activity at 0.84 nM to 17 uM preincubated for 20 mins followed by 10 times EC80 of agonist addition and measured after 60 mins by cell based TR-FRET assay relative to control
[17] = molecular target: T3, Lutropin-choriogonadotropic hormone receptor; experiment: Negative allosteric modulation of human luteinizing hormone receptor assessed as reduction in Org 43553-induced agonist activity preincubated for 20 mins followed by 4 times EC80 of agonist addition and measured after 60 mins by cell based TR-FRET assay relative to control
[18] = molecular target: T3, Lutropin-choriogonadotropic hormone receptor; experiment: Negative allosteric modulation of human luteinizing hormone receptor assessed as reduction in Org 43553-induced agonist activity preincubated for 20 mins followed by 10 times EC80 of agonist addition and measured after 60 mins by cell based TR-FRET assay relative to control
[19] = molecular target: T3, Lutropin-choriogonadotropic hormone receptor; experiment: Negative allosteric modulation of human luteinizing hormone receptor assessed as reduction in Org 43553-induced agonist activity preincubated for 20 mins followed by 100 times EC80 of agonist addition and measured after 60 mins by cell based TR-FRET assay relative to control
[20] = tested on: Rattus norvegicus; experiment: Downregulation of human luteinizing hormone-induced progesterone expression in plasma of cetrorelix-treated female rat at 14 mg/kg, iv after 2 hrs by radioimmunoassay method (reference value: 243 nM); type: functional
[21] = tested on: Rattus norvegicus; experiment: Downregulation of human luteinizing hormone-induced progesterone expression in plasma of cetrorelix-treated iv dosed female rat after 2 hrs by radioimmunoassay method; type: functional, organism-based
[22] = tested on: Rattus norvegicus; experiment: Effect on folliculo-genesis in 4 day cycle of po dosed normally cycling female rat assessed as induction of cycle arrest in diestrus stage by observing vaginal smears administered once daily for 8 days; type: functional, organism-based
[23] = tested on: Rattus norvegicus; experiment: Downregulation of estradiol level in proestrus staged-female rat serum at 18 mg/kg, po administered once daily for 8 days and measured by radioimmunoassay method (reference value: 125 pmol/L); type: functional
[24] = tested on: Rattus norvegicus; experiment: Downregulation of estradiol level in proestrus staged-female rat serum at 72 mg/kg, po administered once daily for 8 days and measured by radioimmunoassay method (reference value: 125 pmol/L); type: functional
[25] = Fraction unbound in female rat at 4.5 to 72 mg/kg, po administered once daily for 8 days; type: ADME, organism-based; conditions: in vivo

T3 sequence (P22888 whole entry): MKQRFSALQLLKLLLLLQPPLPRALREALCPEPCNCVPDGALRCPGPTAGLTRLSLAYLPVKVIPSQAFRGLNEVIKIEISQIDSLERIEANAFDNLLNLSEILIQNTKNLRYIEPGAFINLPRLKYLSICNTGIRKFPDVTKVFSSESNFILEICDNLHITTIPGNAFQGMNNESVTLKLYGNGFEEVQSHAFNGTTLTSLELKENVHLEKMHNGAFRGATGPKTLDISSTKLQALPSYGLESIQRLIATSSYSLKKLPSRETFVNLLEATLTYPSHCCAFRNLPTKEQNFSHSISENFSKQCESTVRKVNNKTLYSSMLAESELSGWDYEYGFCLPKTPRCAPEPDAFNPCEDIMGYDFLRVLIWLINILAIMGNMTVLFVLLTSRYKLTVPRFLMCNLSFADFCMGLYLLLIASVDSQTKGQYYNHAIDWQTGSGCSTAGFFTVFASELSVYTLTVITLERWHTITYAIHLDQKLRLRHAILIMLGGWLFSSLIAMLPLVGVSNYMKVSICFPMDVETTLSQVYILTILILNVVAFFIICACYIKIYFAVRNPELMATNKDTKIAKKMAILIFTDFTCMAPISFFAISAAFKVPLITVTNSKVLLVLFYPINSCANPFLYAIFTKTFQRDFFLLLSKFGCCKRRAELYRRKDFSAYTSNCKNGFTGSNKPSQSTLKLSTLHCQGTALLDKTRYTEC
Chain of Cannabinoid receptor 1 (Homo sapiens) (P21554 whole entry): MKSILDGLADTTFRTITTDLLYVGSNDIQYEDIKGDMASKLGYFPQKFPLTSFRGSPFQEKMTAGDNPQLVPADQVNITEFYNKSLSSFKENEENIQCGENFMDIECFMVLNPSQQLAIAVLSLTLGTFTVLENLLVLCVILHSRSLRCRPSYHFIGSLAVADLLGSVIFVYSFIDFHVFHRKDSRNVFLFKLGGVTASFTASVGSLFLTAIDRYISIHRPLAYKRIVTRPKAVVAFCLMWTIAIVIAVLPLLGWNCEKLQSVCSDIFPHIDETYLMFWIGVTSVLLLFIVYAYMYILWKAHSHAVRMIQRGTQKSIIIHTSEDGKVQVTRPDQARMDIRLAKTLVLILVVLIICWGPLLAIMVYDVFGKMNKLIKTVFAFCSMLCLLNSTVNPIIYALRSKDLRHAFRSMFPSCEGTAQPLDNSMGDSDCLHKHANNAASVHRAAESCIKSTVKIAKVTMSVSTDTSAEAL
Chain of D(2) dopamine receptor (Homo sapiens) (P14416 whole entry): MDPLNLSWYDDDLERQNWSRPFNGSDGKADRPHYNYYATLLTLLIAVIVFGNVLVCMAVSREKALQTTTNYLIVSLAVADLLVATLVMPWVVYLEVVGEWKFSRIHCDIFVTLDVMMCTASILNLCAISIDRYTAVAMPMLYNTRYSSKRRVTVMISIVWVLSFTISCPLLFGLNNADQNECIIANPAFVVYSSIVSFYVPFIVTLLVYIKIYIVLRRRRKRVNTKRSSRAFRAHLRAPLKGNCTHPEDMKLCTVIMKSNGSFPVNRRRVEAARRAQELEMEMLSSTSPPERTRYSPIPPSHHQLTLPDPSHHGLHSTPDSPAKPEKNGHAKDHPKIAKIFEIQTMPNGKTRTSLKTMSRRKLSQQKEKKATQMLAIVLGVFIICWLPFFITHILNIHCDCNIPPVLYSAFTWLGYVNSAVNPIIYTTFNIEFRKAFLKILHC
Chain of Substance-P receptor (Homo sapiens) (P25103 whole entry): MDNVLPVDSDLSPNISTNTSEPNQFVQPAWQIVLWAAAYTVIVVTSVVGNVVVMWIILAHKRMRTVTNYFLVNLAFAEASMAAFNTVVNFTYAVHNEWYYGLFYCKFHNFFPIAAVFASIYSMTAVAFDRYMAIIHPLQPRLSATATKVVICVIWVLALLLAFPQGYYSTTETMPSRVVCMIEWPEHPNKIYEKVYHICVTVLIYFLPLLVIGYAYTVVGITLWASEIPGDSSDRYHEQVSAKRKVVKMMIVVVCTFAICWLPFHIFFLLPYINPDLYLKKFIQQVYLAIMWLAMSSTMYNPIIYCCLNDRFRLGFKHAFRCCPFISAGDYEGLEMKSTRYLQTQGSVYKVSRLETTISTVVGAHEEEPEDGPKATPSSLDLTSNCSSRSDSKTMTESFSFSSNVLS

Fh at 1 µM [1]: 95%
CLH [2]: 21.7 mL/min/kg
half-life [3]: 33 h
Activity [4]: < 70%
Activity [5]: < 70%
Activity [6]: < 70%
Activity [7]: < 70%
Activity [8]: < 70%
SMILES: O=C(Nc1cnc(Oc2ccc(F)cc2)nc1)N1CCc2ncccc2[C@@H]1c1ccc(F)cc1 [BAY-899]

Activity [9]: Dose-dependent effect
Fh at 1 µM [1]: 94%
CLH [2]: 18.3 mL/min/kg
half-life [3]: 12 h
Activity [4]: < 70%
Activity [5]: < 70%
Activity [6]: < 70%
Activity [7]: < 70%
Activity [8]: < 70%
Emax [11]: 99%
Emax [12]: 99%
Emax [13]: 109%
IC50 [14]: 2200 nM
Emax [15]: 104%
Emax [16]: 102%
IC50 [17]: 1200 nM
IC50 [18]: 1500 nM
IC50 [19]: 1500 nM
fraction unbound at 192 h [25]: 0.0024
SMILES: O=C(Nc1ccc(Oc2ccc(F)cc2)cc1)N1CCc2ncccc2[C@@H]1c1ccc(Cl)cc1
Activity [10]: Dose-dependent effect
Activity [20]: 51 nM
Activity [21]: Dose-dependent effect
Activity [22]: Dose-dependent effect
Activity [23]: 70 pmol/L
Activity [24]: <39 pmol/L
